How the values were obtained:
Assay type in all cases: biochemical
FGFR3 = FGFR3 (Homo sapiens (Human), UniProt P22607); assay: FGFR enzymatic assay (FRET peptide phosphorylation), FGFR3; conditions: FGFR3 enzyme (Millipore), ATP 140 μM
How it was run: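 FRET assay of peptide phosphorylation by FGFR3 in HEPES pH 7.5 buffer with MgCl2, EGTA, Tween-20 and DTT. Enzyme was pre-incubated 5-10 min with compound, and the reaction ran 1 hr at 25° C. IC50 came from a variable-slope sigmoidal fit.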

FGFR1 = FGFR1 (Homo sapiens (Human), UniProt P11362); assay: FGFR enzymatic assay (FRET peptide phosphorylation), FGFR1; conditions: FGFR1 enzyme 0.02 nM, ATP 210 μM
How it was run: (§1)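 Recombinant kinase was pre-incubated 5–10 min with serially diluted inhibitor in HEPES buffer (10 mM MgCl2, 5 mM DTT, pH 7.5; buffer described for FGFR3). Peptide phosphorylation ran 1 h at 25 °C and was detected by FRET after ~1 h equilibration. IC50 values come from variable-slope sigmoidal fits.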

FGFR2 = FGFR2 (Homo sapiens (Human), UniProt P21802); assay: FGFR enzymatic assay (FRET peptide phosphorylation), FGFR2; conditions: FGFR2 enzyme 0.01 nM, ATP 100 μM
How it was run: as §1

Measured: IC50

Sequence of FGFR3 (P22607 23-806): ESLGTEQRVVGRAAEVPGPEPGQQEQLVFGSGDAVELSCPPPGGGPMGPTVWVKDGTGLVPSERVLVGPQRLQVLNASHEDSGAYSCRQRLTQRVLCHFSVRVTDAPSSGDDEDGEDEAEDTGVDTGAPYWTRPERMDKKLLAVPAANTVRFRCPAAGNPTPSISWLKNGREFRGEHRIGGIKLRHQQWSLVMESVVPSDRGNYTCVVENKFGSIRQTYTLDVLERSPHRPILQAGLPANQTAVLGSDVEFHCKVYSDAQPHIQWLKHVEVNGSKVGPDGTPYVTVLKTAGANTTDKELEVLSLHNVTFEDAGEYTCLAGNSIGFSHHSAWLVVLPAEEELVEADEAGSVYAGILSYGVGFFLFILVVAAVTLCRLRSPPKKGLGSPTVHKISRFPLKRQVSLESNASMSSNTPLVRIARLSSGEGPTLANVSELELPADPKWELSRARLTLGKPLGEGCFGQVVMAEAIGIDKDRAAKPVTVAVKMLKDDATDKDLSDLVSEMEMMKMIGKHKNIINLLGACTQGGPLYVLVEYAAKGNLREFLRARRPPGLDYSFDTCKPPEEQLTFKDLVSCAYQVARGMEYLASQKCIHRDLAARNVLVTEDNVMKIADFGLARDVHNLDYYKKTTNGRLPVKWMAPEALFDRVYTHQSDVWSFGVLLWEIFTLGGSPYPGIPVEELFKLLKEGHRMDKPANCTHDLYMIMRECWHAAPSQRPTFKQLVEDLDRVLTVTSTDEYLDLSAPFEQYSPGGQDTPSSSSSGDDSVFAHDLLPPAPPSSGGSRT
Sequence of FGFR2 (P21802 22-821): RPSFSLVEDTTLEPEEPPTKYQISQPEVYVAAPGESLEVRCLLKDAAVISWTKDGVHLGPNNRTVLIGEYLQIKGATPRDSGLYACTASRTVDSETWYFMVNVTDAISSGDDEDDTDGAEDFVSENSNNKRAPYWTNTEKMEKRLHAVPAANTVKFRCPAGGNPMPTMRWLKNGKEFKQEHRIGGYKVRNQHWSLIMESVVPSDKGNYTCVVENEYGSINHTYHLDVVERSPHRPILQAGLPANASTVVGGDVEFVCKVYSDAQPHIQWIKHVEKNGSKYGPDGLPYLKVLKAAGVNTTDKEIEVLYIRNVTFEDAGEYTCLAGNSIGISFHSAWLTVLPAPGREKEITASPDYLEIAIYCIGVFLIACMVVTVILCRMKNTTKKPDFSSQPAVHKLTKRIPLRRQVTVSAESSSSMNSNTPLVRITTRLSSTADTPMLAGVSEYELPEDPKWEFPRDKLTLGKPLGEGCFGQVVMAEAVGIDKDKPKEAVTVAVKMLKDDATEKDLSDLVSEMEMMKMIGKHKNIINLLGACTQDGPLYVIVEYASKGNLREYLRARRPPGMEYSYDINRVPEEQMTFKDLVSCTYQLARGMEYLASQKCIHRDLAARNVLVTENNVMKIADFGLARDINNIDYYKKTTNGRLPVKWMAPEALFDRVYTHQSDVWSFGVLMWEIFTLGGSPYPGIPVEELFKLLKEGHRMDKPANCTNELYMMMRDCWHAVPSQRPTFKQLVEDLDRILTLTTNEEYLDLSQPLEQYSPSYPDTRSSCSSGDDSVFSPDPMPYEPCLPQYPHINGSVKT
Sequence of FGFR1 (P11362 22-822): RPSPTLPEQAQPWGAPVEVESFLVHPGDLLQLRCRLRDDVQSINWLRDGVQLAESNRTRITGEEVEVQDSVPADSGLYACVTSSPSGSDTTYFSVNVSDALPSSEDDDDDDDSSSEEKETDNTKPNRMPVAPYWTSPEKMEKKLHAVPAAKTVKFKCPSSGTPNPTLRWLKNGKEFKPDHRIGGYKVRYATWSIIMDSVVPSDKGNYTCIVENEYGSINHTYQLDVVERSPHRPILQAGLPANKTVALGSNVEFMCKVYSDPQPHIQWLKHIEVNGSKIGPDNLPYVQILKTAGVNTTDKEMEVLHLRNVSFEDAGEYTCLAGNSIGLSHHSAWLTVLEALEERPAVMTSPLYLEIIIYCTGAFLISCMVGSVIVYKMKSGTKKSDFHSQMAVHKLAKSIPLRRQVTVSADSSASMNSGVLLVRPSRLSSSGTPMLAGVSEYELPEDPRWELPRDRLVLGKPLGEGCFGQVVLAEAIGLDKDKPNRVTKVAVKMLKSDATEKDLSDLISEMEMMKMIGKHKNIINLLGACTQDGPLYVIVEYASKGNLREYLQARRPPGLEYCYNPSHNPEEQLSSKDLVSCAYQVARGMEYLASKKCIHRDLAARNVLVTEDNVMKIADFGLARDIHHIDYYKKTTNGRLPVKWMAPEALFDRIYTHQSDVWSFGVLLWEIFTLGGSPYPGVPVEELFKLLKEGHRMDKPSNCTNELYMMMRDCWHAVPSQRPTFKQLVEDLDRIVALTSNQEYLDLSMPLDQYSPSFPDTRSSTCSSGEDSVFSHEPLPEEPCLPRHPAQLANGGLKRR

COc1cc(OC)c(F)c(N2Cc3cnc4[nH]cc(C)c4c3N(C)C2=O)c1F [Example 104, 3-(2,6-difluoro-3,5-dimethoxyphenyl)-1,9-dimethyl-1,3,4,7-tetrahydro-2H-pyrrolo[3′,2′:5,6]pyrido[4,3-d]pyrimidin-2-one]
< 0.1 µM: all assays above

COc1cc(OC)c(F)c(N2Cc3cnc4[nH]cc(CC#N)c4c3N(C)C2=O)c1F [Example 105, [3-(2,6-difluoro-3,5-dimethoxyphenyl)-1-methyl-2-oxo-2,3,4,7-tetrahydro-1H-pyrrolo[3′,2′:5,6]pyrido[4,3-d]pyrimidin-9-yl]acetonitrile]
< 0.1 µM: all assays above

COc1cc(OC)c(Cl)c(N2Cc3cnc4c(c3N(C3CCC3)C2=O)CC(=O)N4)c1F [Example 106, 3-(2-chloro-6-fluoro-3,5-dimethoxyphenyl)-1-cyclobutyl-3,4,7,9-tetrahydro-1H-pyrrolo[3′,2′:5,6]pyrido[4,3-d]pyrimidine-2,8-dione]
< 0.1 µM: all assays above

COc1cc(OC)c(Cl)c(N2Cc3cnc4[nH]ccc4c3N(c3cnn(C)c3)C2=O)c1F [Example 107, 3-(2-chloro-6-fluoro-3,5-dimethoxyphenyl)-1-(1-methyl-1H-pyrazol-4-yl)-1,3,4,7-tetrahydro-2H-pyrrolo[3′,2′:5,6]pyrido[4,3-d]pyrimidin-2-one]
< 0.1 µM: all assays above

COc1cc(OC)c(Cl)c(N2Cc3cnc4[nH]ccc4c3N(c3cccnc3)C2=O)c1F [Example 108, 3-(2-chloro-6-fluoro-3,5-dimethoxyphenyl)-1-pyridin-3-yl-1,3,4,7-tetrahydro-2H-pyrrolo[3′,2′:5,6]pyrido[4,3-d]pyrimidin-2-one]
< 0.1 µM: all assays above

COc1cc(OC)c(F)c(N2Cc3cnc4[nH]ccc4c3N(c3cccnn3)C2=O)c1F [Example 109, 3-(2,6-difluoro-3,5-dimethoxyphenyl)-1-pyridazin-3-yl-1,3,4,7-tetrahydro-2H-pyrrolo[3′,2′:5,6]pyrido[4,3-d]pyrimidin-2-one]
< 0.1 µM: all assays above

COc1cc(OC)c(F)c(N2Cc3cnc4[nH]c(CN5CCOCC5)cc4c3N(C)C2=O)c1F [Example 110, 3-(2,6-difluoro-3,5-dimethoxyphenyl)-1-methyl-8-(morpholin-4-ylmethyl)-1,3,4,7-tetrahydro-2H-pyrrolo[3′,2′:5,6]pyrido[4,3-d]pyrimidin-2-one]
< 0.1 µM: all assays above

COc1cc(OC)c(F)c(N2Cc3cnc4[nH]c(CN5CCC(O)CC5)cc4c3N(C)C2=O)c1F [Example 111, 3-(2,6-difluoro-3,5-dimethoxyphenyl)-8-[(4-hydroxypiperidin-1-yl)methyl]-1-methyl-1,3,4,7-tetrahydro-2H-pyrrolo[3′,2′:5,6]pyrido[4,3-d]pyrimidin-2-one]
< 0.1 µM: all assays above

COc1cc(OC)c(F)c(N2Cc3cnc4[nH]c(CN5CCC(F)(F)CC5)cc4c3N(C)C2=O)c1F [Example 112, 3-(2,6-difluoro-3,5-dimethoxyphenyl)-8-[(4,4-difluoropiperidin-1-yl)methyl]-1-methyl-1,3,4,7-tetrahydro-2H-pyrrolo[3′,2′:5,6]pyrido[4,3-d]pyrimidin-2-one]
< 0.1 µM: all assays above

COc1cc(OC)c(F)c(N2Cc3cnc4[nH]c(CN5CCCC(F)(F)C5)cc4c3N(C)C2=O)c1F [Example 113, 3-(2,6-difluoro-3,5-dimethoxyphenyl)-8-[(3,3-difluoropiperidin-1-yl)methyl]-1-methyl-1,3,4,7-tetrahydro-2H-pyrrolo[3′,2′:5,6]pyrido[4,3-d]pyrimidin-2-one]
< 0.1 µM: all assays above

COc1cc(OC)c(F)c(N2Cc3cnc4[nH]c(CCN5CCOCC5)cc4c3N(C)C2=O)c1F [Example 114, 3-(2,6-difluoro-3,5-dimethoxyphenyl)-1-methyl-8-(2-morpholin-4-ylethyl)-1,3,4,7-tetrahydro-2H-pyrrolo[3′,2′:5,6]pyrido[4,3-d]pyrimidin-2-one]
< 0.1 µM: all assays above

COc1cc(OC)c(F)c(N2Cc3cnc4[nH]c(CCN5CCC5)cc4c3N(C)C2=O)c1F [Example 115, 8-(2-azetidin-1-ylethyl)-3-(2,6-difluoro-3,5-dimethoxyphenyl)-1-methyl-1,3,4,7-tetrahydro-2H-pyrrolo[3′,2′:5,6]pyrido[4,3-d]pyrimidin-2-one]
< 0.1 µM: all assays above

COc1cc(OC)c(F)c(N2Cc3cnc4[nH]c(CCN5CCCC5)cc4c3N(C)C2=O)c1F [Example 116, 3-(2,6-difluoro-3,5-dimethoxyphenyl)-1-methyl-8-(2-pyrrolidin-1-ylethyl)-1,3,4,7-tetrahydro-2H-pyrrolo[3′,2′:5,6]pyrido[4,3-d]pyrimidin-2-one]
< 0.1 µM: all assays above

COc1cc(OC)c(F)c(N2Cc3cnc4[nH]c(CCCN5CCOCC5)cc4c3N(C)C2=O)c1F [Example 117, 3-(2,6-difluoro-3,5-dimethoxyphenyl)-1-methyl-8-(3-morpholin-4-ylpropyl)-1,3,4,7-tetrahydro-2H-pyrrolo[3′,2′:5,6]pyrido[4,3-d]pyrimidin-2-one]
< 0.1 µM: all assays above

COc1cc(OC)c(F)c(N2Cc3cnc4[nH]c(CCCN5CCN(C6CC6)CC5)cc4c3N(C)C2=O)c1F [Example 118, 8-[3-(4-cyclopropylpiperazin-1-yl)propyl]-3-(2,6-difluoro-3,5-dimethoxyphenyl)-1-methyl-1,3,4,7-tetrahydro-2H-pyrrolo[3′,2′:5,6]pyrido[4,3-d]pyrimidin-2-one]
< 0.1 µM: all assays above

CCN1CCN(C(=O)c2cc3c4c(cnc3[nH]2)CN(c2c(F)c(OC)cc(OC)c2F)C(=O)N4C)CC1 [Example 119, 3-(2,6-difluoro-3,5-dimethoxyphenyl)-8-[(4-ethylpiperazin-1-yl)carbonyl]-1-methyl-1,3,4,7-tetrahydro-2H-pyrrolo[3′,2′:5,6]pyrido[4,3-d]pyrimidin-2-one]
< 0.1 µM: all assays above

COc1cc(OC)c(F)c(N2Cc3cnc4[nH]c(C(=O)N5C[C@@H](C)N[C@@H](C)C5)cc4c3N(C)C2=O)c1F [Example 120, 3-(2,6-difluoro-3,5-dimethoxyphenyl)-8-{[(3R,5S)-3,5-dimethylpiperazin-1-yl]carbonyl}-1-methyl-1,3,4,7-tetrahydro-2H-pyrrolo[3′,2′:5,6]pyrido[4,3-d]pyrimidin-2-one]
< 0.1 µM: all assays above

CCN1C(=O)N(c2c(F)c(OC)cc(OC)c2F)Cc2cnc3[nH]ccc3c21 [Example 121, 3-(2,6-Difluoro-3,5-dimethoxyphenyl)-1-ethyl-1,3,4,7-tetrahydro-2H-pyrrolo[3′,2′:5,6]pyrido[4,3-d]pyrimidin-2-one]
< 0.1 µM: all assays above

COc1cc(OC)c(F)c(N2Cc3cnc4c(c3N(Cc3cccc(C#N)c3)C2=O)CC(=O)N4)c1F [Example 123, 3-{[3-(2,6-difluoro-3,5-dimethoxyphenyl)-2,8-dioxo-2,3,4,7,8,9-hexahydro-1H-pyrrolo[3′,2′:5,6]pyrido[4,3-d]pyrimidin-1-yl]methyl}benzonitrile]
< 0.1 µM: all assays above

COc1cc(OC)c(Cl)c(N2Cc3cnc4c(c3N(c3cccc(F)c3F)C2=O)CC(=O)N4)c1F [Example 124, 3-(2-chloro-6-fluoro-3,5-dimethoxyphenyl)-1-(2,3-difluorophenyl)-3,4,7,9-tetrahydro-1H-pyrrolo[3′,2′:5,6]pyrido[4,3-d]pyrimidine-2,8-dione]
< 0.1 µM: all assays above

COc1cc(OC)c(F)c(N2Cc3cnc4c(c3N(c3ccc(C#N)cc3F)C2=O)CC(=O)N4)c1F [Example 125, 4-[3-(2,6-difluoro-3,5-dimethoxyphenyl)-2,8-dioxo-2,3,4,7,8,9-hexahydro-1H-pyrrolo[3′,2′:5,6]pyrido[4,3-d]pyrimidin-1-yl]-3-fluorobenzonitrile]
< 0.1 µM: all assays above

Reference: patent US9611267B2, “Substituted tricyclic compounds as FGFR inhibitors” (Incyte Corporation, priority 2012, dated 2017)
